Assay in all cases: In Vitro Enzyme Inhibition Assay
The target of one test is Procathepsin L (Homo sapiens, UniProt P07711). As to the method:
(§1) Assays were carried out in the presence of variable concentrations of test compound. Reactions were initiated by addition of enzyme to buffered solutions of inhibitor and substrate. Product fluorescence (excitation at 360 nm, emission at 460 nm) was monitored with a fluorescent plate reader.

The target of another test is Cathepsin S (Homo sapiens, UniProt P25774). Here is the method:
as §1

A further test deals with T1, Cathepsin K (Homo sapiens, UniProt P43235).
T1 sequence (P43235 whole entry): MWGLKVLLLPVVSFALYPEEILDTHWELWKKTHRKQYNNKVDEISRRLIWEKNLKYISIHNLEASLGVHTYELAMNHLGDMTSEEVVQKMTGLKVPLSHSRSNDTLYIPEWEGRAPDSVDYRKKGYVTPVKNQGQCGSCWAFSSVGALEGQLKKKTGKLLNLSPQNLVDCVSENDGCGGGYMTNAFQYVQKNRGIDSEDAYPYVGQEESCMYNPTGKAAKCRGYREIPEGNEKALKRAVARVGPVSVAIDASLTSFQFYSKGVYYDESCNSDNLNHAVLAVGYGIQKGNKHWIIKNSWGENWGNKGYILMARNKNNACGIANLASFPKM
The conditions noted are these: pH 5.5; 22 °C. Here is the method:
as §1

Sequence of Procathepsin L (P07711 whole entry): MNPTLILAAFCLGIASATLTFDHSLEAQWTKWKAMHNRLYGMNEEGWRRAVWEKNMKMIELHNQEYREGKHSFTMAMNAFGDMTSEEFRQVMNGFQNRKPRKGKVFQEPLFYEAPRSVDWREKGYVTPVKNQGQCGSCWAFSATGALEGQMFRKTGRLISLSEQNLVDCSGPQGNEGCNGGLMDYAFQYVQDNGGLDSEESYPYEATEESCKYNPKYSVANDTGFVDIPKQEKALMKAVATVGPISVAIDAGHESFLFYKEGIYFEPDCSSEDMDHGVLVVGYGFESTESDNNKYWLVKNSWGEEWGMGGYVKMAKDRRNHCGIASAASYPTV
Sequence of Cathepsin S (P25774 whole entry): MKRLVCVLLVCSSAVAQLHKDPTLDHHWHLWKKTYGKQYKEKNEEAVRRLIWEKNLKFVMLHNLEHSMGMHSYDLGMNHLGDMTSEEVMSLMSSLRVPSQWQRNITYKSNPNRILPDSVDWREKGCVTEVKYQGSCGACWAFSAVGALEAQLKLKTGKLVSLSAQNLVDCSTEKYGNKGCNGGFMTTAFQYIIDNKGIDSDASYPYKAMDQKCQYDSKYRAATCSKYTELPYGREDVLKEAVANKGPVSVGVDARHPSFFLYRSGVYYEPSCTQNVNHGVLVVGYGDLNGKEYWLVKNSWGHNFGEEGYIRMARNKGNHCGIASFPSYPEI

Consider `CN[C@@H](CC(C)C)C(=O)N1CC(=O)C(NC(=O)[C@H](CC(C)C)NC(=O)OCc2ccccc2)C1` (stereo partly drawn) [[(2S)-1-{3-[(2S)-2-{[(benzyloxy)carbonyl]amino}-4-methylpentanamido]-4-oxopyrrolidin-1-yl}-4-methyl-1-oxopentan-2-yl](methyl)azanium chloride], for which the inhibition constant Ki – broadly, the dissociation constant of the complex between target and ligand, obtained from inhibition or displacement – amounted to 400 nM at Procathepsin L, 290 nM at Cathepsin S and 77 nM on Cathepsin K.

Source of the values: BindingDB's records for doi:10.1021/jm000320t (Gsk, 2001).
